# Source: PubChem BioAssay (NCI)
#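 Where inhibition never reached the appropriate level, the endpoint shown equals the highest concentration tested. Otherwise, values were interpolated linearly from a five-concentration, 48-hour dose response in 96-well plates. At the TGI there is no net growth.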
# What was measured:
# Assay in all cases: NCI tumour cell line growth inhibition, 48 h
# NCI-H226 lung = tested on: NCI-H226 lung
# SK-MEL-28 melanoma = tested on: SK-MEL-28 melanoma
# UO-31 renal = tested on: UO-31 renal
# MOLT-4 leukemia = tested on: MOLT-4 leukemia
# SF-295 CNS = tested on: SF-295 CNS
# COLO 205 colon = tested on: COLO 205 colon
# TK-10 renal = tested on: TK-10 renal
# BT-549 breast = tested on: BT-549 breast
# SNB-19 CNS = tested on: SNB-19 CNS
Compound,TGI (NCI-H226 lung),TGI (SK-MEL-28 melanoma),TGI (UO-31 renal),TGI (MOLT-4 leukemia),TGI (SF-295 CNS),TGI (COLO 205 colon),TGI (TK-10 renal),TGI (BT-549 breast),TGI (SNB-19 CNS)
O=C(/C=C/c1ccc(Cl)cc1)Oc1ccc(C=C2CCC/C(=C\c3ccc(OC(=O)/C=C/c4ccc(Cl)cc4)cc3)C2=O)cc1,> 100 µM,> 100 µM,> 100 µM,> 100 µM,> 100 µM,> 100 µM,> 100 µM,> 100 µM,> 100 µM
c1c[nH]c(-c2cccc3nsnc23)c1,> 100 µM,> 100 µM,> 100 µM,> 100 µM,> 100 µM,> 100 µM,> 100 µM,> 100 µM,> 100 µM
CCOC(=O)c1c(N2CCCC2)[nH]c(=O)c(C(c2ccc(OC)cc2)c2c(O)c(C(=O)OCC)c(N3CCCC3)[nH]c2=O)c1O,> 100 µM,> 100 µM,> 100 µM,> 100 µM,> 100 µM,> 100 µM,> 100 µM,> 100 µM,> 100 µM
COC(=O)/C=C(\C)CC/C=C(\C)CCC1OC1(C)C (stereo not drawn),24.8 µM,23.3 µM,20.8 µM,24.4 µM,21.3 µM,30 µM,22.7 µM,21.8 µM,> 75 µM
Cc1nc(N)c(N2CCN(C#N)CC2)c(=O)[nH]1,> 100 µM,> 100 µM,> 100 µM,> 100 µM,> 100 µM,> 100 µM,> 100 µM,> 100 µM,> 100 µM
CN(CCN1CCCC1)C1CCc2cc(Cl)c(Cl)cc2C1 (stereo not drawn),34.8 µM,67.9 µM,27.7 µM,> 100 µM,29.1 µM,17.2 µM,30.9 µM,28.5 µM,38.7 µM
OCc1ccc2c(c1)CC1(C2)Cc2cc3c(cc2C1O)CCC3 (stereo not drawn),28.9 µM,21.3 µM,24.1 µM,21.1 µM,12.4 µM,10.3 µM,67.1 µM,16 µM,> 100 µM
COC(=O)/C=C(/C=C1/C(C#N)=C(N)N(c2ccc(Cl)cc2)C1(C)/C(=C\C(=O)OC)C(=O)OC)C(=O)OC (stereo not drawn),86.4 µM,36.2 µM,41.2 µM,78.9 µM,> 100 µM,29.8 µM,81 µM,30.2 µM,> 100 µM
O=C(CC(NC(=O)C(F)(F)F)C(=O)O)OCc1ccccc1 (stereo not drawn),> 100 µM,> 100 µM,> 100 µM,> 100 µM,> 100 µM,> 100 µM,> 100 µM,> 100 µM,> 100 µM
O=C(COc1ccc(OCC(=O)N/N=C/c2ccc(-c3ccc(Cl)cc3Cl)o2)c(Cl)c1)N/N=C/c1ccc(-c2ccc(Cl)cc2Cl)o1,> 100 µM,> 100 µM,> 100 µM,5.5 µM,> 100 µM,> 100 µM,> 100 µM,> 100 µM,> 100 µM
N#Cc1c(-c2ccc([N+](=O)[O-])cc2)cc(-c2ccc(Nc3ccnc4cc(Cl)ccc34)cc2)[nH]c1=O,> 100 µM,> 100 µM,> 100 µM,> 100 µM,> 100 µM,> 100 µM,> 100 µM,> 100 µM,> 100 µM
NC1=CC(=O)c2c(O)ccc(O)c2C1=O,> 100 µM,38 µM,15.7 µM,> 34.9 µM,40.9 µM,20.9 µM,> 84.8 µM,30.9 µM,> 65.9 µM
O=c1ccc2ccc(S)cc2o1,> 100 µM,> 100 µM,> 100 µM,> 100 µM,> 100 µM,> 100 µM,> 100 µM,> 100 µM,> 100 µM
O=C(NCc1ccccc1)c1cc2ccccc2oc1=Nc1cccc(C(F)(F)F)c1,97.7 µM,> 100 µM,> 100 µM,92.5 µM,> 100 µM,90.2 µM,> 100 µM,> 100 µM,> 100 µM
COc1ccc2ccc3oc(=O)c(C)cc3c2c1,> 100 µM,> 100 µM,> 100 µM,> 100 µM,> 100 µM,> 100 µM,> 100 µM,> 100 µM,> 100 µM
O=C(CCc1cc(O)cc(O)c1)NCCc1cc(OCc2ccccc2)cc(OCc2ccccc2)c1,51.3 µM,55 µM,15.3 µM,22.7 µM,25.8 µM,44.3 µM,46.2 µM,35.8 µM,7.17 µM
CCOC1C=CC(=O)C(CO)O1 (stereo not drawn),46.3 µM,33.3 µM,4.77 µM,21.2 µM,33.2 µM,30.4 µM,22.7 µM,26.1 µM,42.9 µM
